The source made the active and inactive calls. The rule behind the calls is not given here.
Legend:
PC-12 [1] = assay: Protection against SNP-induced cell damage in rat PC-12 cells at 10 uM pretreated with compound for 2 hrs followed by SNP addition and measured after 24 hrs by MTT assay; type: functional, cell-based; settings: time 26.0 hrs
PC-12 [2] = assay: Neuroprotective activity against SNP-induced cell damage in rat PC-12 cells at 2.5 to 100 uM pretreated with compound for 2 hrs followed by SNP addition and measured after 24 hrs by MTT assay; type: functional, cell-based; settings: dose 2.5-100 µM, time 26.0 hrs
RAW264.7 [3] = assay: Cytotoxicity against mouse RAW264.7 cells assessed as reduction in cell viability at 5 uM incubated for 24 hrs by MTT assay; type: toxicity, cell-based; settings: raw264.7, 24 h
RAW264.7 [4] = assay: Anti-inflammatory activity in LPS-induced mouse RAW264.7 cells assessed as reduction in PGE2 level preincubated with compound for 1 hrs followed by LPS stimulation and measured after 24 hrs by ELISA; type: functional, cell-based; settings: time 25.0 hrs
RAW264.7 [5] = assay: Anti-inflammatory activity in mouse RAW264.7 cells assessed as inhibition of LPS-induced NO production preincubated with compound for 1 hrs followed by LPS stimulation and measured after 24 hrs; type: functional, cell-based; settings: time 25.0 hrs
Rattus norvegicus [6] = assay: Neuroprotective activity against middle cerebral artery occlusion induced ischemia stroke Sprague-Dawley rat model assessed as reduction in glycocalyx degradation by measuring decrease in serum syndecan-1 level at 20 mg/kg, ip measured after 24 hrs by ELISA; type: functional, organism-based
Rattus norvegicus [7] = assay: Neuroprotective activity against middle cerebral artery occlusion induced ischemia stroke Sprague-Dawley rat model assessed as cerebral infarction area at 10 mg/kg, ip measured after 24 hrs by TTC staining based imaging analysis (reference value: 20.08 +/- 5.70); type: functional
[8] = biological target: T1, Prostaglandin G/H synthase 1 (Ovis aries, UniProt P05979); assay: Inhibition of ovine COX-1 using arachidonic acid as substrate preincubated with compound for 5 mins followed by substrate addition and measured after 2 mins by enzyme immunoassay
T1 sequence (P05979 whole entry): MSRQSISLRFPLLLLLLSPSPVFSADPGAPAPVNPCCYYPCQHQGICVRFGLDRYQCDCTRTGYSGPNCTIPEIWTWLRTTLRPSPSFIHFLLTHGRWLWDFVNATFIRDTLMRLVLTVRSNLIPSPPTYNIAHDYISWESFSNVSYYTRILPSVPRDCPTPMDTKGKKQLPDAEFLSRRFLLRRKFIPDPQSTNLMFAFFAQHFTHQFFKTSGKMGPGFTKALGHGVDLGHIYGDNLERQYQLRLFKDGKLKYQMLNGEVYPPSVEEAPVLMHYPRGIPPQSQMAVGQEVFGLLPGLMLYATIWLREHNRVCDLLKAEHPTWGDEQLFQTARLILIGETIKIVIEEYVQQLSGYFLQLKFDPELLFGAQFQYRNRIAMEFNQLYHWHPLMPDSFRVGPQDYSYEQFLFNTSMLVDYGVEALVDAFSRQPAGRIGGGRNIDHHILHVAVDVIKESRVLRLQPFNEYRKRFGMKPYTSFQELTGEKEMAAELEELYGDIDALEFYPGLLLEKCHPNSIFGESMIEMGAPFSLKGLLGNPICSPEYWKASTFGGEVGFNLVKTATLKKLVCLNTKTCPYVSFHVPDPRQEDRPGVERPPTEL

PC-12 [9] = assay: Neuroprotective activity against SNP-induced cell damage in rat PC-12 cells pretreated with compound for 2 hrs followed by SNP addition and measured after 24 hrs by MTT assay; type: functional, cell-based; settings: dose 2.5-100 µM, time 26.0 hrs

**Q.** CS(=O)(=O)c1ccc(-n2nc(-c3ccccc3O)nc2-c2ccccc2O)cc1 was tested. Which Activity (PC-12 [1]) did it give?
**A.** Active

**Q.** Which results are given for Cc1ccc(-c2cc(C(F)(F)F)nn2-c2ccc(S(N)(=O)=O)cc2)cc1 [CELECOXIB]?
**A.** Activity (PC-12 [2]): inactive; Activity (RAW264.7 [3]): Non-Toxic; Activity (RAW264.7 [4]): Active; Activity (RAW264.7 [5]): Active

**Q.** For NS(=O)(=O)c1ccc(-n2nc(-c3ccc(F)cc3O)nc2-c2ccccc2O)cc1, which Activity (PC-12 [1]) is on record?
**A.** Active

**Q.** Which results are given for CC1=NN(c2ccccc2)C(=O)C1 [EDARAVONE]?
**A.** Activity (Rattus norvegicus [6]): Active; Activity (Rattus norvegicus [7]): 15.41

**Q.** Which results are given for NS(=O)(=O)c1ccc(-n2nc(-c3ccc(F)cc3)nc2-c2ccccc2O)cc1?
**A.** Activity (PC-12 [1]): Active; IC50 [8]: 41.6 µM; Activity (RAW264.7 [3]): Non-Toxic; Activity (RAW264.7 [4]): Active; Activity (RAW264.7 [5]): Active

**Q.** With NS(=O)(=O)c1ccc(-n2nc(-c3ccc(C(F)(F)F)cc3O)nc2-c2ccc(C(F)(F)F)cc2O)cc1 as the compound, how does the Activity (PC-12 [1]) read?
**A.** Active

**Q.** With COc1ccc(-c2nc(-c3ccccc3O)n(-c3ccc(S(N)(=O)=O)cc3)n2)cc1 as the compound, how does the Activity (PC-12 [1]) read?
**A.** Active

**Q.** For COc1ccc(-c2nc(-c3ccc(OC)cc3O)n(-c3ccc(S(N)(=O)=O)cc3)n2)c(O)c1, which Activity (PC-12 [1]) is on record?
**A.** Active

**Q.** How did the Activity (PC-12 [1]) turn out when COc1ccc(-c2nc(-c3ccccc3O)n(-c3ccc(S(C)(=O)=O)cc3)n2)c(O)c1 was run?
**A.** Active

**Q.** For COc1ccc(-c2nc(-c3ccccc3O)n(-c3ccccc3)n2)c(O)c1, which Activity (PC-12 [1]) is on record?
**A.** Active

**Q.** Which Activity (PC-12 [1]) does the source give for NS(=O)(=O)c1ccc(-n2nc(-c3ccccc3)nc2-c2ccccc2O)cc1 here?
**A.** Active

**Q.** What about the IC50 [8] of the same compound?
**A.** 32.1 µM

**Q.** And the Activity (RAW264.7 [3])?
**A.** Non-Toxic

**Q.** What about the Activity (RAW264.7 [4]) of the same compound?
**A.** Active

**Q.** What about the Activity (RAW264.7 [5]) of the same compound?
**A.** Active

**Q.** CS(=O)(=O)c1ccc(-n2nc(-c3ccc(C(F)(F)F)cc3O)nc2-c2ccccc2O)cc1 was tested. Which Activity (PC-12 [1]) did it give?
**A.** Active

**Q.** What about the IC50 [8] of the same compound?
**A.** 82.1 µM

**Q.** What about the Activity (RAW264.7 [3]) of the same compound?
**A.** Non-Toxic

**Q.** What about the Activity (RAW264.7 [4]) of the same compound?
**A.** Active

**Q.** And the Activity (RAW264.7 [5])?
**A.** Active

**Q.** What about the Activity (PC-12 [9]) of the same compound?
**A.** Dose-Dependent Effect

**Q.** Which Activity (PC-12 [1]) does the source give for CC(=O)Oc1ccccc1-c1nc(-c2ccccc2OC(C)=O)n(-c2ccccc2)n1 here?
**A.** Active

**Q.** With NS(=O)(=O)c1ccc(-n2nc(-c3ccc([N+](=O)[O-])cc3)nc2-c2ccccc2O)cc1 as the compound, how does the Activity (PC-12 [1]) read?
**A.** Active

**Q.** How did the Activity (PC-12 [1]) turn out when NS(=O)(=O)c1ccc(-n2nc(-c3ccc([N+](=O)[O-])cc3O)nc2-c2ccccc2O)cc1 was run?
**A.** Active

**Q.** What does the source list for NS(=O)(=O)c1ccc(-n2nc(-c3ccccc3O)nc2-c2ccccc2O)cc1?
**A.** Activity (PC-12 [1]): Active; IC50 [8]: 39.2 µM; Activity (RAW264.7 [3]): Non-Toxic; Activity (RAW264.7 [4]): Active; Activity (RAW264.7 [5]): Active; Activity (PC-12 [9]): Dose-Dependent Effect

**Q.** How did the Activity (PC-12 [1]) turn out when Oc1ccccc1-c1nc(-c2ccccc2O)n(-c2ccccc2)n1 was run?
**A.** Active

**Q.** COc1ccc(-c2nc(-c3ccccc3O)n(-c3ccc(S(N)(=O)=O)cc3)n2)c(O)c1 was tested. Which Activity (PC-12 [1]) did it give?
**A.** Active

**Q.** What about the IC50 [8] of the same compound?
**A.** 45.5 µM

**Q.** For Cc1ccc(-c2nc(-c3ccc(C)cc3O)n(-c3ccc(S(N)(=O)=O)cc3)n2)c(O)c1, which Activity (PC-12 [1]) is on record?
**A.** Active

**Q.** Which results are given for COc1ccc(O)c(-c2nc(-c3ccccc3O)n(-c3ccc(S(N)(=O)=O)cc3)n2)c1?
**A.** Activity (PC-12 [1]): Active; IC50 [8]: 12.8 µM

**Q.** With NS(=O)(=O)c1ccc(-n2nc(-c3ccc(F)cc3O)nc2-c2ccc(F)cc2O)cc1 as the compound, how does the Activity (PC-12 [1]) read?
**A.** Active

**Q.** What about the IC50 [8] of the same compound?
**A.** 26.3 µM

**Q.** What about the Activity (RAW264.7 [3]) of the same compound?
**A.** Non-Toxic

**Q.** And the Activity (RAW264.7 [4])?
**A.** Active

**Q.** What about the Activity (RAW264.7 [5]) of the same compound?
**A.** Active

**Q.** What about the Activity (PC-12 [9]) of the same compound?
**A.** Dose-Dependent Effect

**Q.** With COc1cccc(-c2nc(-c3ccccc3O)n(-c3ccc(S(N)(=O)=O)cc3)n2)c1O as the compound, how does the Activity (PC-12 [1]) read?
**A.** Active

**Q.** And the IC50 [8]?
**A.** 20 µM

**Q.** How did the Activity (PC-12 [1]) turn out when Cc1ccc(-c2nc(-c3ccccc3O)n(-c3ccc(S(N)(=O)=O)cc3)n2)c(O)c1 was run?
**A.** Active

**Q.** What about the IC50 [8] of the same compound?
**A.** 42.3 µM

**Q.** And the Activity (RAW264.7 [3])?
**A.** Non-Toxic

**Q.** What about the Activity (RAW264.7 [4]) of the same compound?
**A.** Active

**Q.** And the Activity (RAW264.7 [5])?
**A.** Active

**Q.** What about the Activity (PC-12 [9]) of the same compound?
**A.** Dose-Dependent Effect

**Q.** For Oc1cc(C(F)(F)F)ccc1-c1nc(-c2ccccc2O)n(-c2ccccc2)n1, which Activity (PC-12 [1]) is on record?
**A.** Active

**Q.** How did the Activity (PC-12 [1]) turn out when COc1ccc(-c2nc(-c3ccccc3OC(C)=O)n(-c3ccccc3)n2)c(OC(C)=O)c1 was run?
**A.** Active

**Q.** Which Activity (PC-12 [1]) does the source give for NS(=O)(=O)c1ccc(-n2nc(-c3ccc(Cl)cc3O)nc2-c2ccc(Cl)cc2O)cc1 here?
**A.** Active

**Q.** Which Activity (PC-12 [1]) does the source give for NS(=O)(=O)c1ccc(-n2nc(-c3ccc(Cl)cc3O)nc2-c2ccccc2O)cc1 here?
**A.** Active

**Q.** What about the IC50 [8] of the same compound?
**A.** 25.6 µM

**Q.** Which Activity (PC-12 [1]) does the source give for NS(=O)(=O)c1ccc(-n2nc(-c3ccc(C(F)(F)F)cc3)nc2-c2ccccc2O)cc1 here?
**A.** Active

**Q.** What about the IC50 [8] of the same compound?
**A.** 43.4 µM

**Q.** And the Activity (RAW264.7 [3])?
**A.** Non-Toxic

**Q.** And the Activity (RAW264.7 [4])?
**A.** Active

**Q.** And the Activity (RAW264.7 [5])?
**A.** Active

**Q.** With CC(=O)Oc1cc(C(F)(F)F)ccc1-c1nc(-c2ccccc2OC(C)=O)n(-c2ccccc2)n1 as the compound, how does the Activity (PC-12 [1]) read?
**A.** Active

From ChEMBL document CHEMBL5625239, “Synthesis of 1,3,5-triphenyl-1,2,4-triazole derivatives and their neuroprotection by anti-oxidative stress and anti-inflammation and protecting BBB” (Eur J Med Chem, 2023)
